# Experimental data: patent US8178658B2 (Dow AgroSciences, LLC, priority 2008, dated 2012)
# Experiments:
# [1] = tested on: beet armyworm (BAW; Spodoptera exigua: Lepidoptera); assay: 96-well microtiter plate-based high throughput (HTS) diet bioassay on beet armyworm (BAW HTS); assay type: in vivo; conditions: for BAW HTS: 96-well microtiter plate HTS diet assay, 12 μg test compound per well, BAW eggs, mortality at 6 d post-treatment, mortality class; for pest or weed control at 12 µg/well, 12 µg/well: Spodoptera exigua, 144 h, read-out: BAW HTS
# How it was run: (§1)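 HTS: eggs on diet topped with 12 μg cpd/well; dark, 29° C; mortality day 6; mean of 6 reps. Tray: 3–5 L2 larvae/well; diet dosed 50 μg/cm^2; 25° C, 14:10 L:D; 6 d; mean of 8 wells. Scored as ≥50% mortality or not.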
# [2] = tested on: beet armyworm (BAW; Spodoptera exigua: Lepidoptera); assay: 128-well diet tray assay on beet armyworm (BAW 50); assay type: in vivo; conditions: for BAW 50 ug/cm2: 128-well diet tray assay, 50 μg/cm^2 of test compound on diet, second instar BAW larvae, mortality class; for pest or weed control at 50 µg/cm2, 50 µg/cm2: Spodoptera exigua, 144 h, read-out: BAW 50 ug/cm2
# How it was run: as §1
SMILES,BAW HTS [1],"pest or weed control at 12 µg/well, 12 µg/well [1] [%]",BAW 50 ug/cm2 [2],"pest or weed control at 50 µg/cm2, 50 µg/cm2 [2] [%]"
"C=CCN(C(=O)O[C@@H]1O[C@@H](C)[C@H](OC)[C@@H](OCC)[C@H]1OC)c1ccc(-c2ncn(-c3ccc(OC(F)(F)C(F)(F)F)cc3)n2)cc1 [Compound 256, allyl {4-[1-(4-pentafluoroethoxy-phenyl)-1H-[1,2,4]triazol-3-yl]-phenyl}-carbamic acid (2S,3R,4R,5S,6S)-4-ethoxy-3,5-dimethoxy-6-methyl-tetrahydropyran-2-yl ester]",A (the compound was tested and at least 50 percent mortality was observed),> 50,A (the compound was tested and at least 50 percent mortality was observed),> 50
"CCCO[C@@H]1[C@@H](OC)[C@H](C)O[C@@H](OC(=O)N(CO)c2ccc(-c3ncn(-c4ccc(OC(F)(F)C(F)(F)F)cc4)n3)cc2)[C@@H]1OC [Compound 257, hydroxymethyl {4-[1-(4-pentafluoroethoxy-phenyl)-1H-[1,2,4]triazol-3-yl]-phenyl}-carbamic acid (2S,3R,4R,5S,6S)-4-propoxy-3,5-dimethoxy-6-methyl-tetrahydropyran-2-yl ester]",B (either (1) the compound was tested and less than 50 percent mortality was observed or (2) the compound was not tested),< 50,A (the compound was tested and at least 50 percent mortality was observed),> 50
"CCO[C@@H]1[C@@H](OC)[C@H](C)O[C@@H](OC(=O)N(C(C)=O)c2ccc(-c3ncn(-c4ccc(OC(F)(F)C(F)(F)F)cc4)n3)cc2)[C@@H]1OC [Compound 258, acetyl {4-[1-(4-pentafluoroethoxyphenyl)-1H-[1,2,4]triazol-3-yl]-phenyl}-carbamic acid (2S,3R,4R,5S,6S)-4-ethoxy-3,5-dimethoxy-6-methyl-tetrahydropyran-2-yl ester]",A (the compound was tested and at least 50 percent mortality was observed),> 50,A (the compound was tested and at least 50 percent mortality was observed),> 50
"CCO[C@@H]1[C@@H](OC)[C@H](C)O[C@@H](OC(=O)N(C(=O)CCC(=O)OC)c2ccc(-c3ncn(-c4ccc(OC(F)(F)C(F)(F)F)cc4)n3)cc2)[C@@H]1OC [Compound 259, 4-(((2S,3R,4R,5S,6S)-4-ethoxy-3,5-dimethoxy-6-methyl-tetrahydropyran-2-yloxycarbonyl)-{4-[1-(4-pentafluoroethoxy-phenyl)-1H-[1,2,4]triazol-3-yl]-phenyl}-amino)-4-oxo-butyric acid methyl ester]",B (either (1) the compound was tested and less than 50 percent mortality was observed or (2) the compound was not tested),< 50,A (the compound was tested and at least 50 percent mortality was observed),> 50
